Measurements published in patent US10519148B2, “Acrylic acid derivative, preparation method and use in medicine thereof” (Zhejiang Hisun Pharmaceutical Co., Ltd., priority 2015, dated 2019).

Legend:
ERα = molecular target: T1, ERα (Homo sapiens, UniProt P03372); experiment: ERα down-regulation immunofluorescence assay in MCF-7 cells; type: cell-based; details: immunofluorescence of ERα level, read-out: IC50 (nM) ERα down-degradation
T1 construct: host or cells: MCF-7
T1 sequence (P03372 1-595): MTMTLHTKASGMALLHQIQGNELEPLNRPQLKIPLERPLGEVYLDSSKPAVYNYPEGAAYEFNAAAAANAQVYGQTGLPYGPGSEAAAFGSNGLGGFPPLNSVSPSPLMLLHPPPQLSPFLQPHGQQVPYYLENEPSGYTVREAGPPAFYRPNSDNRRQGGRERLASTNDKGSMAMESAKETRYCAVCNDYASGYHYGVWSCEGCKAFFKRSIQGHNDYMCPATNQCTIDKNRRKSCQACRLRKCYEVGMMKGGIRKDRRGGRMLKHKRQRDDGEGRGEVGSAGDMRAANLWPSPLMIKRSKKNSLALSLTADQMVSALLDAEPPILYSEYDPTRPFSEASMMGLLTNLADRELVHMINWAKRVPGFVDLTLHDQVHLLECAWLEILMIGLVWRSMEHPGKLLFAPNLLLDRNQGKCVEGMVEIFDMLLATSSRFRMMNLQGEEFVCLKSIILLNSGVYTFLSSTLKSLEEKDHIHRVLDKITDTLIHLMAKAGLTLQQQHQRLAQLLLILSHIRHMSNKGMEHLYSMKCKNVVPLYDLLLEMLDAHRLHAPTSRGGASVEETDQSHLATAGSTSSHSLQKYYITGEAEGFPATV
Method: The down-regulation of the preferred compounds of the present invention on the protein level of ERα is evaluated by immunofluorescence assay using human breast cancer cell line MCF-7. MCF-7 cells used in the experiment were revived directly from frozen cells (about 5×10^6). The MCF-7 frozen cell line (Sigma D5921) purchased from Sigma was stored in DMEM medium containing 2 mM […]. 5% (v/v) Charcoal/Dextran-treated bovine serum […] were added to the revived MCF-7 cells and the cell concentration was determined using Coulter Counter.
The cells used for the test were diluted to 3.75×10^4 cells/mL with culture medium and 40 μL/well of the above cell suspension was transferred to 384-well black transparent bottom plates and incubated overnight at 37° C., 5% CO2. 10 mM compound stock solutions were diluted to a series of test concentrations (10 mM, 0.1 mM, 1 μM, 0.01 μM etc.) and dispensed into cell plates. 20 μL of 11.1% (v/v) aqueous formaldehyde solution (phosphate buffered saline) was added to each of the different concentrations of the test compounds and MCF-7 cell culture solution (40 μL), and the final concentration of formaldehyde in the solution was 3.7% (v/v). Cells were fixed at room temperature for 20 minutes, washed twice with 250 μL of PBS/Proclin, and then 40 μL of PBS/Proclin was added and refrigerated at 4° C. The immunostaining of the protein was performed using the automated AutoElisa kit. The PBS/Proclin solution was aspirated from each plate well and then 40 μL of PBS containing 0.5% Tween 20 (v/v) was added for cell permeation. After one hour, the plate was washed with 250 μL of PBS/0.05% Tween 20/Proclin for three times, and 20 μL of ERα rabbit monoclonal antibody (Thermofisher) in PBS/Tween™ 20/3% (w/v) BSA solution (1:1000) was added. The plates were incubated overnight at 4° C., washed three times with 250 μL of PBS/Tween™ 20/Proclin, and then 20 μL of goat anti-rabbit IgG AlexaFluor 594 or goat anti-rabbit IgG AlexaFluor 488 antibody (containing Hoechst stain (1:5000) in PBS/Tween™ 20/3% (w/v) BSA solution was added, and the system was incubated at room temperature for one hour. After the plates were washed three times with 250 μL of PBS/0.05% (v/v) Tween™ 20/Proclin, 20 μL of PBS was added and the paltes were kept in dark place at 4° C. The level of estrogen receptor ERα in MCF-7 cells was calculated through Cellomics Arrayscan detection of fluorescence emission intensity at two emission wave bands at 594 nm (24-hour time point) and 488 nm (5-hour time point). The average fluorescence emission intensity of each cell is positively correlated with the ERα receptor level of the cell. The primitive fluorescence data was used to obtain the fitting curve by software such as Origin or Genedata. Half maximal inhibitory concentration IC50 was used to characterize the down-regulation of estrogen receptor ERα by the test compounds, which is the concentration of the test compound when the fluorescence emission intensity is reduced to 50% of the average maximum fluorescence intensity.

[1] = tested on: MCF-7 human breast cancer cell line; experiment: Inhibition of MCF-7 cell proliferation (CCK-8); type: cell-based; details: MCF7, MCF-7 cells, 72 hours
Method: 1. Reagents and Consumables
Cell Counting Reagent Kit 8 (Cell Counting Kit-8, Cat# CK04-13, Dojindo);
96-well culture plate (Cat #3599, Corning Costar);
Medium and fetal bovine serum (GIBCO);
Desktop Microplate Reader (SpectraMax M5 Microplate Reader, Molecular Devices);
MCF-7 human breast cancer cell line (purchased from Shanghai cell resource center, Chinese Academy of Sciences).
2. Preparation of Reagents
Preparation of culture medium: MEM+10% FBS+0.01 mg/ml Human recombinant insulin; Preparation of the compound: The compounds were diluted with DMSO to a final concentration of 10 mM;
(1) The logarithmic growth phase cells were collected, counted, resuspended the cells with complete culture medium. The cells were adjusted to the appropriate concentration (determined according to the cell density optimization test results) and inoculated into 96-well plates, 100 μL of cell suspension per well. The cells were incubated in an incubator for 24 hours at 37° C. with 100% relative humidity, 5% CO2; […]
(5) The absorbance at 450 nm wavelength was measured on a SpectraMax M5 Microplate Reader after gently shaking. The inhibition rate was calculated using the absorbance at 650 nm as a reference. […]

C[C@@H]1Cc2c([nH]c3cccc(F)c23)[C@@H](c2c(F)cc(/C=C/C(=O)O)cc2F)N1CC1(F)CC1 [Example 12, (E)-3-(3,5-difluoro-4-((1R,3R)-5-fluoro-2-((1-fluorocyclopropyl)methyl)-3-methyl-2,3,4,9-tetrahydro-1H-pyrido[3,4-b]indol-1-yl)phenyl)acrylic acid]
DC50 (ERα): 0.1 to 10 nM | IC50 [1]: 1.45 nM

C[C@@H]1Cc2c([nH]c3ccccc23)[C@@H](c2c(F)cc(/C=C/C(=O)O)cc2F)N1CC1(F)CC1 [Example 1, (E)-3-(3,5-difluoro-4-((1R,3R)-2-((1-fluorocyclopropyl)methyl)-3-methyl-2,3,4,9-tetrahydro-1H-pyrido[3,4-b]indol-1-yl)phenyl)acrylic acid]
DC50 (ERα): 0.1 to 10 nM | IC50 [1]: 0.34 nM
